The values that follow come from patent publication US20260250293A1, “ULODESINE SALT” (Laevoroc Immunology AG, priority 2021, published 2026).

Type in all cases: physicochemical
A short description of data set [1]: Solid state stability study. The settings on record: for Purity(%): HPLC. The method, then:
(closed) and 40° C./75% RH (open) conditions during 2 weeks. […] At 0, 1 week and 2 weeks' time points, the corresponding samples will be sampled for purity determination by HPLC to assess the chemical stability. Also, one more sample was prepared under corresponding condition for appearance and XRPD test to evaluate the physical stability.

Data set [2] is described as follows: Aqueous formulation stability. The conditions noted are these: for formulation stability: in water at 0.1 mg/ml (calculated by freebase), room temperature, 14 days. How it is done:
The sample condition was maintained at 21-25° C. and protected from light.
Duplicate samples were prepared by transfer 4 ml solution into an 8 mL glass bottle and all the samples were placed in dark under room temperature. At desired time points of 0, 3, 7, 10 and 14 days, the sample concentration was analysed by HPLC and the pH value was measured.

Data set [3] in a line: Thermodynamic solubility study in water, SGF, FaSSIF and FeSSIF. The settings on record: for XRPD of residual solid: after 24 hrs solubility study. How it is done: Then all the samples were vortex for 30 s to disperse homogenously and placed into a constant temperature shaking incubator at 37° C. with 200 rpm for 24 hrs. If the API dissolved, more material will be added to keep suspension state. The concentration, XRPD and pH were tested at desired time points.

Data set [4] can be described thus: Dynamic vapour sorption (DVS). The conditions noted are these: for DVS hygroscopicity / DVS water uptake: 25° C. How it is done:
The moisture sorption profile was generated at 25° C. using a DVS moisture balance flow system (Model Advantage 1.0) with the following conditions: sample size approximately 10 mg, drying 25° C. for 60 minutes, adsorption range 0% to 95% RH, desorption range 95% to 0% RH, and step interval 5%. The equilibrium criterion was <0.01% weight change in 5 minutes for a maximum of 120 minutes.

Setting [5] is: 40° C./75% RH open, 2 weeks, listed as Ulodesine Hemi L-glutarate.
[6] abbreviates: solubility sample in FaSSIF(pH 6.5).
[7] abbreviates: solubility sample in FeSSIF(pH 5).
The mark [8] stands for this setting: solubility sample in SGF(pH 1.2).
The mark [9] stands for this setting: listed as Ulodesine hemi-L-glutarate.
Where [10] appears, read: 40° C./75% RH open, 2 weeks, listed as Ulodesine Hemi succinate.
The mark [11] stands for this setting: 60° C. close, 2 weeks, listed as Ulodesine Hemi succinate.

Structures are written as SMILES. Where two headings read alike, the source gives them in different places.

As to `O=c1nc[nH]c2c(CN3C[C@H](CO)[C@@H](O)C3)c[nH]c12` [Ulodesine hemi L-glutarate], the “TRS(%) (=100% − purity %)” value in data set [1] (0 d) worked out at 0.60%; in data set [1] (40° C./75% RH open, 1 week), 0.48%; in data set [1] (setting [5]) it was 0.40%; in data set [1] (60° C. close, 1 week), 0.74%. The “Purity(%)” value in data set [1] (0 d) was 99.403%; in data set [1] (40° C./75% RH open, 1 week), 99.524%; in data set [1] (40° C./75% RH open, 2 weeks), 99.600%; in data set [1] (60° C. close, 1 week), 99.258%; in data set [1] (60° C. close, 2 weeks) it was 98.984%. Also, the “degradation (related substance increase)” value in data set [1] (40° C./75% RH condition, during 2 weeks) is recorded as “no related substance increased”. Moreover, the “TRS Change(%) (Compared to 0 d)” value is on record as −0.12% in data set [1] (40° C./75% RH open, 1 week); −0.20% in data set [1] (setting [5]); 0.15% in data set [1] (60° C. close, 1 week); 0.42% TRS in data set [1] (60° C. close, 2 weeks); 0.42% in data set [1] (60° C. close, 2 weeks, listed as Ulodesine Hemi L-glutarate). Moreover, the “appearance and XRPD (polymorph) change” value in data set [1] (during 2 weeks under 60° C. and 40° C./75% RH conditions) is “no appearance and polymorph change”. Further, the “chemical stability based on the purity result” value in data set [1] (under 40° C./75% RH condition) is listed as “more chemically stable than Ulodesine Hemi succinate”. The “change of appearance, concentration and purity of solution” value in data set [2] (in water at 0.1 mg/ml (cal. by freebase), 14 days at room temperature, dark) is reported as “no significant change”. For the same molecule, the formulation stability entry was “physically and chemically stable for 14 days” in data set [2]; “good formulation stability” in data set [2] (listed as ulodesine hemi L-glutarate). Moreover, the “XRPD of residual solid” value in data set [3] (FaSSIF(pH 6.5)), in data set [3] (FeSSIF(pH 5)) and in data set [3] (water) was “changed compared to initial solid form” throughout. The “pH value at 24 hrs” value in data set [3] (setting [6]) was 7.72; in data set [3] (setting [7]), 7.78; in data set [3] (setting [8]), 7.75; in data set [3] (solubility sample in water), 7.58. Further, the “XRPD pre and post DVS” value in data set [4] is “No change”; in data set [4] (setting [9]), “no change”. For the same molecule, the DVS hygroscopicity entry is recorded as “Moderately hygroscopic” in data set [4] and “moderately hygroscopic” in data set [4] (setting [9]). The DVS water uptake result in data set [4] (at 80% RH) is given as “(2.53% at 80% RH;”; in data set [4] (at 80% RH, listed as Ulodesine hemi-L-glutarate), 2.53%; in data set [4] (at 95% RH), 27.06% at 95% RH).

For `O=c1nc[nH]c2c(CN3C[C@H](CO)[C@@H](O)C3)c[nH]c12` [Ulodesine hemi adipinate], the “pH value at 24 hrs” value in data set [3] (setting [6]) worked out at 6.40; in data set [3] (setting [7]), 6.09; in data set [3] (setting [8]) it was 5.60; in data set [3] (solubility sample in water), 6.56. In addition, in data set [4], the “XRPD pre and post DVS” value is on record as “No change”. In addition, the DVS hygroscopicity entry in data set [4] is “Moderately hygroscopic”. In addition, the DVS water uptake result is listed as “(3.68% at 80% RH;” in data set [4] (at 80% RH) and 15.80% at 95% RH) in data set [4] (at 95% RH).

`O=c1nc[nH]c2c(CN3C[C@H](CO)[C@@H](O)C3)c[nH]c12` [Ulodesine hemi succinate, reference compound]: the “TRS(%) (=100% − purity %)” value in data set [1] (0 d) is 0.06%; in data set [1] (40° C./75% RH open, 1 week), 0.39%; in data set [1] (setting [10]), 0.22%; in data set [1] (60° C. close, 1 week), 0.18%; in data set [1] (setting [11]), 0.40%. For the same molecule, the “Purity(%)” value in data set [1] (0 d) amounted to 99.942%; in data set [1] (40° C./75% RH open, 1 week), 99.613%; in data set [1] (40° C./75% RH open, 2 weeks) it was 99.782%; in data set [1] (60° C. close, 1 week), 99.816%; in data set [1] (60° C. close, 2 weeks) it was 99.601%. The “TRS Change(%) (Compared to 0 d)” value in data set [1] (40° C./75% RH open, 1 week) stood at 0.33%; in data set [1] (40° C./75% RH open, 2 weeks), 0.16% TRS increased at; in data set [1] (setting [10]), 0.16%; in data set [1] (60° C. close, 1 week), 0.13%; in data set [1] (60° C. close, 2 weeks), 0.34% TRS increased at; in data set [1] (setting [11]), 0.34%. Besides, the “pH value at 24 hrs” value in data set [3] (setting [6]) was determined as 6.16; in data set [3] (setting [7]), 5.75; in data set [3] (setting [8]), 5.32; in data set [3] (solubility sample in water), 6.34. Besides, in data set [4], the “XRPD pre and post DVS” value is “No change”. Moreover, in data set [4], the DVS hygroscopicity entry is given as “Moderately hygroscopic”. Besides, the DVS water uptake entry in data set [4] (at 80% RH) is “(6.97% at 80% RH;”; in data set [4] (at 95% RH), 11.86% at 95% RH).
